Measurements published in ChEMBL document CHEMBL4725370, “Discovery of Proteolysis-Targeting Chimera Molecules that Selectively Degrade the IRAK3 Pseudokinase” (J Med Chem, 2020).
The source made the active and inactive calls. The calls are words filed in the database; no cut-off is given here.

Experiments:
[1] = biological target: T1, Protein cereblon/Interleukin-1 receptor-associated kinase 3 (Homo sapiens, UniProt Q9Y616+Q96SW2); test: Protac activity at CRBN/IRAK3 in human THP1 cells assessed as induction of IRAK3 degradation at 0.1 to 10 uM measured after 24 hrs by Western blot analysis; type: cell-based; conditions: THP-1, dose microM 0.1-10, time […]
Target sequence in this assay (Q96SW2 whole entry, looked up, one chain of several): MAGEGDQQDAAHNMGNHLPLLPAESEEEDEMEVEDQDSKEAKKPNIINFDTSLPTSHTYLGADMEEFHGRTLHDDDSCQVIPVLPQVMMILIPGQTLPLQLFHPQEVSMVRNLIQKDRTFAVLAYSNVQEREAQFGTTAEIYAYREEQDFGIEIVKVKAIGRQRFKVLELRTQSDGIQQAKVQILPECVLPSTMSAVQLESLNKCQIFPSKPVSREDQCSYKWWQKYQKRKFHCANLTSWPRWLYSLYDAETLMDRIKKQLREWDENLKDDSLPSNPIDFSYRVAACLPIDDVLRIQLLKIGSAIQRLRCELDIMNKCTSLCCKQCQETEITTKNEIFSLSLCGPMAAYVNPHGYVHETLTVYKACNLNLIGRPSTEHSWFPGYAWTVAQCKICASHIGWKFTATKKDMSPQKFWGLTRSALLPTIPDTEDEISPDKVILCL

[2] = biological target: T2, Interleukin-1 receptor-associated kinase 3 (Homo sapiens, UniProt Q9Y616); test: Inhibition of kinase tracer 236 binding to recombinant human full-length GST-tagged IRAK3 expressed in insect cells by Lanthascreen Eu kinase binding assay
T2 sequence (Q9Y616 whole entry): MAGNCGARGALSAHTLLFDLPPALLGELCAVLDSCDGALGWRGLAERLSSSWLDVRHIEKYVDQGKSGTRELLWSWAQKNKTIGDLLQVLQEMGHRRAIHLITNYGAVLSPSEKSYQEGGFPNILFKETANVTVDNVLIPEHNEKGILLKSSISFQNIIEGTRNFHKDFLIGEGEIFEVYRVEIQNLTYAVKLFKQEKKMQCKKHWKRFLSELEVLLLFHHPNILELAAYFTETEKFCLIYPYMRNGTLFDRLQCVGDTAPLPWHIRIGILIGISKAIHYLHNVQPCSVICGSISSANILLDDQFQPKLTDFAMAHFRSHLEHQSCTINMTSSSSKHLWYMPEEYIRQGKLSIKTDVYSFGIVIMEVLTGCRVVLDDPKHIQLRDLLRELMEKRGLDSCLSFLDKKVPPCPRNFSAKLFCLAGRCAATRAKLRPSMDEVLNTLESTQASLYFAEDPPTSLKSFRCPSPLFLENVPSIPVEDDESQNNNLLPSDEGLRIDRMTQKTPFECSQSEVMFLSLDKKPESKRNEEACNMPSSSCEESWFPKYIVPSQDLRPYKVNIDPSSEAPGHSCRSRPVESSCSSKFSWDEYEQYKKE

[3] = Octanol/buffer partition coefficient, log D of the compound at pH 7.4 by shake-flask method; type: physicochemical
[4] = biological target: T3, Interleukin-1 receptor-associated kinase 4 (Homo sapiens, UniProt Q9NWZ3); test: Inhibition of recombinant human full-length His-tagged IRAK4 expressed in baculovirus expression system using 5-FAM-IPTSPITTTYFFFKKK-COOH as substrate measured after 240 mins by mobility shift assay
T3 sequence (Q9NWZ3 whole entry): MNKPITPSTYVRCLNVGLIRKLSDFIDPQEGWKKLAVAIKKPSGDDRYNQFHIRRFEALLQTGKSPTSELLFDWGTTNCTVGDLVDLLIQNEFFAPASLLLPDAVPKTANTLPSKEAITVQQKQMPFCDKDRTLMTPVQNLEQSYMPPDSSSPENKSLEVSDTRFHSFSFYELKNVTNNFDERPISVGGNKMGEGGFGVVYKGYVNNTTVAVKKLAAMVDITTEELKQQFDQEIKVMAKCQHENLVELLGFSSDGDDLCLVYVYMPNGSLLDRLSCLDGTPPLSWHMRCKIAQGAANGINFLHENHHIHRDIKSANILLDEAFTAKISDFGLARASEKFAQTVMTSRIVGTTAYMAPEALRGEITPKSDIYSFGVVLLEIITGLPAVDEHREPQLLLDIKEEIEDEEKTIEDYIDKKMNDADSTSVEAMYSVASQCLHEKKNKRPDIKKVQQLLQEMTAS

[5] = biological target: Interleukin-1 receptor-associated kinase 1 (Homo sapiens, UniProt P51617); test: Inhibition of recombinant human N-terminal GST-tagged IRAK1 (194 to 712 residues) expressed in baculovirus expression system using 5-FAM-KKKVSRSGLYRSPSMPENLNRPR-COOH as substrate measured after 240 mins by mobility shift assay
Sequence of Interleukin-1 receptor-associated kinase 1 (P51617 whole entry, the tested form may be a part): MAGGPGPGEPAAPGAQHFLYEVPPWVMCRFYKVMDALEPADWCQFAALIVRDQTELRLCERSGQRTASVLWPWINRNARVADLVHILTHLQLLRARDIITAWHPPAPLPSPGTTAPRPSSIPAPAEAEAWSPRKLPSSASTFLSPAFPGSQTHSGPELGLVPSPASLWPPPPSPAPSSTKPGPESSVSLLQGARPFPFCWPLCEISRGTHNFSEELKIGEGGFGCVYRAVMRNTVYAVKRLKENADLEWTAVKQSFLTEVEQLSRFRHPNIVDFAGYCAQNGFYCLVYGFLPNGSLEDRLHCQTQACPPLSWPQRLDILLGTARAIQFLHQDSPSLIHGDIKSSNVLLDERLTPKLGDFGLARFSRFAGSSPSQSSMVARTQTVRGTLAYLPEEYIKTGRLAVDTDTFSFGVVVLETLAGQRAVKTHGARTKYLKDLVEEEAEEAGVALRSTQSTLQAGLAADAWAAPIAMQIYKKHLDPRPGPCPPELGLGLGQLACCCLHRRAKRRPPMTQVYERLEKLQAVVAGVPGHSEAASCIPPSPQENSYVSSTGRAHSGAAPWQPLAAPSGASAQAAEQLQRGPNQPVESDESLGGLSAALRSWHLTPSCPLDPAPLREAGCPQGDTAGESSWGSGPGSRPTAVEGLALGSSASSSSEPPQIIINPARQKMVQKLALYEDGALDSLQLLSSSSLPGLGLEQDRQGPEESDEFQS

[6] = biological target: T1, Protein cereblon/Interleukin-1 receptor-associated kinase 3; test: Protac activity at CRBN/IRAK3 in human PBMC derived primary macrophages assessed as induction of IRAK3 degradation at 0.3 uM preincubated for 8 hrs followed by LPS-stimulation and measured after 8 to 32 hrs by Western blot analysis; type: tissue-based; conditions: Primary macrophage
Target sequence in this assay (Q96SW2 whole entry, looked up, one chain of several): as the sequence (Q96SW2 whole entry, looked up, one chain of several) above

[7] = biological target: Protein cereblon (Homo sapiens, UniProt Q96SW2); test: Inhibition of CRBN (unknown origin)
Sequence of Protein cereblon (Q96SW2 whole entry): as the sequence (Q96SW2 whole entry, looked up, one chain of several) above

[8] = biological target: T1, Protein cereblon/Interleukin-1 receptor-associated kinase 3; test: Protac activity at CRBN/IRAK3 in LPS-induced human THP1 cells assessed as induction of IRAK3 degradation after 16 hrs by Western blot analysis; type: cell-based; conditions: thp-1
Target sequence in this assay (Q96SW2 whole entry, one chain of several): as the sequence (Q96SW2 whole entry, looked up, one chain of several) above

[9] = biological target: T1, Protein cereblon/Interleukin-1 receptor-associated kinase 3; test: Protac activity at CRBN/IRAK3 in human PBMC derived primary macrophages assessed as induction of IRAK3 degradation at 0.3 uM measured after 8 to 32 hrs by Western blot analysis; type: tissue-based; conditions: Primary macrophage, time hrs 8-32
Target sequence in this assay (Q96SW2 whole entry, looked up, one chain of several): as above

[10] = Efflux ratio of apparent permeability in human Caco-2 cells
[11] = Intrinsic apparent permeability across apical to basolateral side in human Caco-2 cells
[12] = biological target: T4, Serine/threonine-protein kinase haspin (Homo sapiens, UniProt Q8TF76); test: Inhibition of GSG2 (unknown origin)
T4 sequence (Q8TF76 whole entry): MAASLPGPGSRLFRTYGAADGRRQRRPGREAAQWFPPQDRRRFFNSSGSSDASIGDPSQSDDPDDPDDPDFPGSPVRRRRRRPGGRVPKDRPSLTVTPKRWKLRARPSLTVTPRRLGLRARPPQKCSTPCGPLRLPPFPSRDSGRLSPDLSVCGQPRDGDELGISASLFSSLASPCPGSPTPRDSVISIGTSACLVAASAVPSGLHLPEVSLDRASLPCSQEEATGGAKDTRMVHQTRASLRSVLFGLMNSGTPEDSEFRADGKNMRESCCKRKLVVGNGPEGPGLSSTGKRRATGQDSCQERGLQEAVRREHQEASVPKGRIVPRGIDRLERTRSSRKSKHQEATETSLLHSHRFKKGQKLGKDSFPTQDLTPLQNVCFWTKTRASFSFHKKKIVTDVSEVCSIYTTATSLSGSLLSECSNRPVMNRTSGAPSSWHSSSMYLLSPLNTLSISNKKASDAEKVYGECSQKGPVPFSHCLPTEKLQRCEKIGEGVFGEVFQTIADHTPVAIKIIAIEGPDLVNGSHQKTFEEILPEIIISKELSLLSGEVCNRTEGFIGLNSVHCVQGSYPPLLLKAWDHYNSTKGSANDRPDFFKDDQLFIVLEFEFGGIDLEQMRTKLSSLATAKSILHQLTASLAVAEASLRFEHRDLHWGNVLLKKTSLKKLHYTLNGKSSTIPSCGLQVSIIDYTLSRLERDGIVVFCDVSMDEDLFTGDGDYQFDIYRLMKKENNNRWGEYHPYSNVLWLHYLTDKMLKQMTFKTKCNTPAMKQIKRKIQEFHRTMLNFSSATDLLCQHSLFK

[13] = biological target: CDK8/Cyclin C (Homo sapiens) (UniProt P49336+P24863); test: Inhibition of CDK8/cyclin C (unknown origin) at 0.1 uM relative to control; type: protein-complex assay
[14] = biological target: Interleukin-1 receptor-associated kinase 3 (Homo sapiens) (UniProt Q9Y616); test: Inhibition of IRAK3 (unknown origin) at 0.1 uM relative to control
[15] = biological target: Serine/threonine-protein kinase haspin (Homo sapiens) (UniProt Q8TF76); test: Inhibition of GSG2 (unknown origin) at 0.1 uM relative to control
[16] = biological target: Cyclin-C/Cyclin-dependent kinase 19 (Homo sapiens) (UniProt Q9BWU1+P24863); test: Inhibition of CDK11/cyclin C (unknown origin) at 0.1 uM relative to control; type: protein-complex assay

SMILES	Activity [1]	IC50 [2] [µM]	logD [3]	IC50 [4] [µM]	IC50 [5] [µM]	Activity [6]	IC50 [7] [µM]	DC50 [8] [µM]	Activity [9]	efflux ratio [10]	Papp A→B [11] [×10⁻⁶ cm/s]	IC50 [12] [µM]	inhibition [13] [%]	inhibition [14] [%]	inhibition [15] [%]	inhibition [16] [%]
CC(C)c1ccn2ncnc(N[C@H]3CC[C@@H](N4CCN(C(=O)CCC(=O)N5CCC(CCN6CCN(c7ccc8c(c7)C(=O)N(C7CCC(=O)N(C)C7=O)C8=O)CC6)CC5)CC4)CC3)c12 (stereo partly specified)	inactive	0.004	3.7	> 1	3.4	inactive	> 12	> 10	inactive							
CC(=O)N1CCN([C@H]2CC[C@@H](Nc3ncnc4[nH]cc(C(C)C)c34)CC2)CC1		0.004	2.3	0.84	1.4					4.3	12					
CC(=O)N1CCN([C@H]2CC[C@@H](Nc3ncnn4ccc(C(C)C)c34)CC2)CC1		0.006										0.15	39	91	55	51
